{
  "source": "patent US20090048174A1",
  "about": "“Methods for inhibiting angiogenesis and tumor growth by inhibition of beta or delta protein kinase C” (priority 2006, published 2009)",
  "key": {"εPKC": {"target": "T1, εPKC (Homo sapiens, UniProt Q02156)", "T1 construct": "endogenous in cells; host or cells: PC3 human prostate cancer xenograft grown in nude mice", "T1 sequence (Q02156 1-737)": "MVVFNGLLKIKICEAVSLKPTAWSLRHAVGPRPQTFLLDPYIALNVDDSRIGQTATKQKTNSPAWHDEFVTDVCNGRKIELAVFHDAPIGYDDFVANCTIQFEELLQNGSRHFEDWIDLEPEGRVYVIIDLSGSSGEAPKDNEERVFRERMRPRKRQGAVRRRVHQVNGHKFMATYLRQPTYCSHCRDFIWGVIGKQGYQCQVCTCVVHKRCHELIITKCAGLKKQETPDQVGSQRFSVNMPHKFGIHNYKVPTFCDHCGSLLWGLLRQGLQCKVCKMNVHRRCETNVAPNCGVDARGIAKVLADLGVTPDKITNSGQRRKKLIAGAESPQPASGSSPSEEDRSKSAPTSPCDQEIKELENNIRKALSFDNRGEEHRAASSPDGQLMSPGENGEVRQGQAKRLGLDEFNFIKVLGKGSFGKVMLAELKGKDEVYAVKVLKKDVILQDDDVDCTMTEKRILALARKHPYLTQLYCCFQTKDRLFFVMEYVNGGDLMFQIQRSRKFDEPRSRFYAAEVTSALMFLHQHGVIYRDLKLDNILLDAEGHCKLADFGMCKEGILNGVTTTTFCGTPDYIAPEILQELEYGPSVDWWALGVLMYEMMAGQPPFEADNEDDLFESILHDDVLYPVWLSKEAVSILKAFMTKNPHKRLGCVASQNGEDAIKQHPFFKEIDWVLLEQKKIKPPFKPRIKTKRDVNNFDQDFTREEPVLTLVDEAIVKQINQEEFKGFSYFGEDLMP", "assay": "Immunoblot of particulate vs total εPKC in tumor cells from treated mice", "type": "in vivo", "conditions": "tumor cells from treated animals; vs control (FIG. 19E)", "experimental": "(§1) Male nude mice were subcutaneously injected with human prostate cancer cells (PC3) at six weeks of age. […]\n(§2) Tumor volumes were measured periodically (e.g., weekly). […] Angiogenesis and tumor cell proliferation were measured at six weeks by deuterium analyses using gas chromatography-mass spectrometry (GC-MS). Ribose derivatives extracted from DNA that incorporated deuterium during cell division can be identified by GC-MS and can be quantitated over total ribose from all DNA. This measurement allows the calculation of “newly synthesized DNA” during the deuterated water administration (i.e., pulse), from which the fractional turnover rate can be calculated using an exponential equation. Levels of tumor cell markers, angiogenesis-related polypeptides, and apoptosis-related proteins were evaluated by Western blot and immunohistochemistry. […]"}, "HIF-1a": {"tested_on": "HIF-1a", "assay": "Immunoblot of HIF-1a in tumor cell homogenate, normalized for GAPDH", "type": "in vivo, mice", "conditions": "tumor cells, 5 weeks of treatment; vs saline, p<0.05 (FIG. 24E)", "excerpt": "FIGS. 24A-24D show the results of immunoblot analysis total cell homogenate obtained from tumor cells from saline control (FIGS. 24 A and 24C) and δPKC activator (FIGS. 24 B and 24D) treated animals (5 weeks). The blots were probed with an antibody specific for hypoxia-inducible factors (HIF-1a, FIGS. 24A and 24B) or an antibody specific for GAPDH as a control (FIGS. 24C and 24D). FIG. 24E is a graph showing the relative levels of HIF-1a (normalized for GADPH) from FIGS. 24A-24D.\nTumor volumes were measured periodically (e.g., weekly). The mice were typically sacrificed after 5 weeks of treatment. […] Angiogenesis and tumor cell proliferation were measured at six weeks by deuterium analyses using gas chromatography-mass spectrometry (GC-MS). Ribose derivatives extracted from DNA that incorporated deuterium during cell division can be identified by GC-MS and can be quantitated over total ribose from all DNA. This measurement allows the calculation of “newly synthesized DNA” during the deuterated water administration (i.e., pulse), from which the fractional turnover rate can be calculated using an exponential equation. Levels of tumor cell markers, angiogenesis-related polypeptides, and apoptosis-related proteins were evaluated by Western blot and immunohistochemistry. […]"}, "CD31": {"tested_on": "CD31", "assay": "CD31 staining of tumor samples (tumor vessels)", "type": "in vivo, mice", "conditions": "5 weeks of treatment; vs control animals", "excerpt": "(§3) Tumor cells (mixed cell populations) obtained from control and βIIPKC peptide inhibitor βIIV5-3-treated animals following 5-weeks of treatment were subjected to histological analysis to determine the effect of the βIIPKC peptide inhibitor on apoptosis (data not shown). CD31 is a tumor endothelial marker used to identify […] in a sample. CD31 (PECAM-1) has been implicated in angiogenesis, apoptosis, cell migration, modulation of integrin-mediated cell adhesion, transendothelial migration, negative regulation of immune cell signaling, autoimmunity, macrophage phagocytosis, IgE-mediated anaphylaxis, and thrombosis. […]\n(§4) Tumor volumes were measured periodically (e.g., weekly). […] Angiogenesis and tumor cell proliferation were measured at six weeks by deuterium analyses using gas chromatography-mass spectrometry (GC-MS). Ribose derivatives extracted from DNA that incorporated deuterium during cell division can be identified by GC-MS and can be quantitated over total ribose from all DNA. This measurement allows the calculation of “newly synthesized DNA” during the deuterated water administration (i.e., pulse), from which the fractional turnover rate can be calculated using an exponential equation. Levels of tumor cell markers, angiogenesis-related polypeptides, and apoptosis-related proteins were evaluated by Western blot and immunohistochemistry."}, "Ki67": {"tested_on": "Ki67", "assay": "Ki67 staining of tumor tissue", "type": "in vivo, mice", "conditions": "vs saline", "experimental": "Tumor tissue obtained from animals treated with a control saline solution or the δPKC activator peptide were stained with an antibody specific for Ki67 to detect proliferating cells in all phases of the cell cycle (i.e., G1, S-, G2-, and M-phase), but not in resting cells (G0-phase).\n(§5) Tumor volumes were measured periodically (e.g., weekly). The mice were typically sacrificed after 5 weeks of treatment. Deuterated water was given to the animals about one week prior to sacrifice to facilitate the measurement of cell proliferation. Angiogenesis and tumor cell proliferation were measured at six weeks by deuterium analyses using gas chromatography-mass spectrometry (GC-MS). Ribose derivatives extracted from DNA that incorporated deuterium during cell division can be identified by GC-MS and can be quantitated over total ribose from all DNA. This measurement allows the calculation of “newly synthesized DNA” during the deuterated water administration (i.e., pulse), from which the fractional turnover rate can be calculated using an exponential equation. Levels of tumor cell markers, angiogenesis-related polypeptides, and apoptosis-related proteins were evaluated by Western blot and immunohistochemistry."}, "δPKC": {"target": "T2, δPKC (Homo sapiens, UniProt Q05655)", "T2 construct": "endogenous in cells; host or cells: PC3 human prostate cancer xenograft grown in nude mice", "T2 sequence (Q05655 whole entry)": "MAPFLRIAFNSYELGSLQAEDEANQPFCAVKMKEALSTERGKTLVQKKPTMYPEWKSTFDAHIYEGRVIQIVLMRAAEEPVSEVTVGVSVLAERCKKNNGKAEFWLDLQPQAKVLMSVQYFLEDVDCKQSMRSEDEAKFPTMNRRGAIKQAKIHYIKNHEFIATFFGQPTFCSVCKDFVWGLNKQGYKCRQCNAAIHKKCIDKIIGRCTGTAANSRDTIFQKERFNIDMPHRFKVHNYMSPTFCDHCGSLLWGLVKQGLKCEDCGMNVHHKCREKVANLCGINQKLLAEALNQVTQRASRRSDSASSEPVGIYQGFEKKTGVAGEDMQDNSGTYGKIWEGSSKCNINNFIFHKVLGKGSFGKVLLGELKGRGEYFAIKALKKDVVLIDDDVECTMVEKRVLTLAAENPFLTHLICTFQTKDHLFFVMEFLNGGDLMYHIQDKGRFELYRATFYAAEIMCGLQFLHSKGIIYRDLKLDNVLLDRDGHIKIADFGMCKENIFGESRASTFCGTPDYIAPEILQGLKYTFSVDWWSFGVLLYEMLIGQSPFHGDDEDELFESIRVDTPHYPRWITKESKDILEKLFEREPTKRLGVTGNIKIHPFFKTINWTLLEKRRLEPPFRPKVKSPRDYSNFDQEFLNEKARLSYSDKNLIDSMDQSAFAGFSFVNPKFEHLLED", "assay": "Immunoblot of particulate vs total δPKC in tumor cells from treated mice", "type": "in vivo", "conditions": "treated for 5 weeks, vs control (FIG. 18E)", "experimental": "as §1, §2"}, "tumor cells (TC)": {"tested_on": "tumor cells (TC)", "assay": "Tumor cell proliferation, deuterium GC-MS fractional turnover", "type": "in vivo, mice", "experimental": "as §5"}, "[1]": {"tested_on": "tumor endothelial cells (TEC)", "assay": "Tumor endothelial cell proliferation, deuterium GC-MS fractional turnover", "type": "in vivo, mice", "conditions": "three weeks of continuous treatment; vs saline", "experimental": "Tumor volumes were measured periodically (e.g., weekly). […] Deuterated water was given to the animals about one week prior to sacrifice to facilitate the measurement of cell proliferation. Angiogenesis and tumor cell proliferation were measured at six weeks by deuterium analyses using gas chromatography-mass spectrometry (GC-MS). Ribose derivatives extracted from DNA that incorporated deuterium during cell division can be identified by GC-MS and can be quantitated over total ribose from all DNA. This measurement allows the calculation of “newly synthesized DNA” during the deuterated water administration (i.e., pulse), from which the fractional turnover rate can be calculated using an exponential equation. Levels of tumor cell markers, angiogenesis-related polypeptides, and apoptosis-related proteins were evaluated by Western blot and immunohistochemistry."}, "[2]": {"tested_on": "tumor cells (mixed cell populations)", "assay": "Apoptosis histology of tumor samples (TUNEL, Hoechst, cleaved caspase 3)", "type": "in vivo, mice", "excerpt": "as §3, §4"}, "[3]": {"tested_on": "human prostate cancer cells (PC3)", "assay": "PC3 prostate tumor xenograft growth in nude mice, osmotic pump delivery", "type": "in vivo", "excerpt": "Male nude mice were subcutaneously injected with human prostate cancer cells (PC3) at six weeks of age. After one week, the animals were implanted with an ALZEJ® (Alza Corporation, Mountain View, Calif.) osmotic pump for delivery of a control saline solution, a control peptide of TAT (residues 47-57, Y[…] ID NO:85), or an inhibitor or activator of PKC (e.g., δV1-1 attached to TAT (YGRKKRRQRRR-CC-SFNSYELGSL; SEQ ID NO: 143), δV1-7 attached to TAT (YGRKKRRQRRR-CC-MRAAEDPM; SEQ ID NO: 144), or βIIV5-3 attached to TAT (YGRKKRRQRRR-CC-QEVIRN; SEQ ID NO: 145). The rate of administration was 0.5 μl/hr, unless otherwise noted. Typical inhibitor or activator concentrations were 3-30 mM. In some cases, a lower concentration was administered initially (e.g., 3 mM) followed by a higher concentration (e.g., 30 mM) in the later weeks of treatment.\nas §5"}, "[4]": {"tested_on": "vascular endothelial growth factor (VEGF)", "assay": "VEGF concentration in prostate cancer tumor cells (ELISA)", "type": "in vivo, mice", "conditions": "three weeks of continuous treatment; vs saline"}},
  "note": "Bridge positions count the residues as written; N and C are the ends. Ends that are not written are not given here.",
  "data": [
    {"substance": "δV1-7: activator of δPKC, amino acid sequence MRAAEDPM (SEQ ID NO: 146), attached to TAT (YGRKKRRQRRR-CC-MRAAEDPM; SEQ ID NO: 144) (YGRKKRRQRRRCCMRAAEDPM; disulfide 12-13 (inferred))", "values": [
      {"measurement": "levels of particulate εPKC compared to total εPKC", "setting": "εPKC", "value": "do not substantially change"},
      {"measurement": "levels of HIF-1a normalized for GAPDH", "setting": "HIF-1a", "value": "several-fold increase"},
      {"measurement": "CD31 staining (tumor vascularization)", "setting": "CD31", "value": "several-fold increase"},
      {"measurement": "Ki67 staining (proliferating cells)", "setting": "Ki67", "value": "increased Ki67 staining"},
      {"measurement": "levels of particulate δPKC compared to total δPKC", "setting": "δPKC", "value": "approximately doubled"},
      {"measurement": "rate of tumor cell proliferation", "setting": "tumor cells (TC); 5 weeks of treatment (end-stage), vs saline (FIG. 22)", "value": "substantial increase"},
      {"measurement": "rate of tumor cell (TC) proliferation, fractional turnover per day", "setting": "tumor cells (TC); three weeks of continuous treatment, vs saline", "value": "appeared to decrease"},
      {"measurement": "rate of tumor endothelial cell (TEC) proliferation, fractional turnover per day", "setting": "[1]", "value": "similar"},
      {"measurement": "percentage of cells stained by TUNEL labeling", "setting": "[2]; mixed tumor cell population, 5 weeks of treatment, vs saline (FIG. 26)", "value": "increased TUNEL labeling only slightly"},
      {"measurement": "tumor volume as a function of the percent of TUNEL-positive cells", "setting": "[2]; vs saline control animals (FIG. 27A-27C)", "value": "larger tumor volumes for a given percent of TUNEL-positive cells"},
      {"measurement": "tumor mass", "setting": "[3]; 3 weeks of treatment, vs saline (FIG. 25C)", "value": "decreased"},
      {"measurement": "tumor volume", "setting": "[3]; continuous treatment, vs saline and Tat control groups, p=0.004 (FIG. 20)", "value": "significantly increased tumor volume"},
      {"measurement": "tumor volume", "setting": "[3]; three weeks of treatment, peptide conjugated to TAT, vs TAT control (FIG. 17)", "value": "increase in tumor volume"},
      {"measurement": "concentration of VEGF in prostate cancer tumor cells", "setting": "[4]", "value": "not increased"}
    ]}
  ]
}
